Where two headings read alike, the source gives them in different places.
What was measured:
Type in all cases: binding
[1] = target: T1, HeLa cell extract proteins (Homo sapiens, UniProt Q96QU8)
T1 construct: endogenous in cells; host or cells: HeLa cell extract
T1 sequence (Q96QU8 1-1125): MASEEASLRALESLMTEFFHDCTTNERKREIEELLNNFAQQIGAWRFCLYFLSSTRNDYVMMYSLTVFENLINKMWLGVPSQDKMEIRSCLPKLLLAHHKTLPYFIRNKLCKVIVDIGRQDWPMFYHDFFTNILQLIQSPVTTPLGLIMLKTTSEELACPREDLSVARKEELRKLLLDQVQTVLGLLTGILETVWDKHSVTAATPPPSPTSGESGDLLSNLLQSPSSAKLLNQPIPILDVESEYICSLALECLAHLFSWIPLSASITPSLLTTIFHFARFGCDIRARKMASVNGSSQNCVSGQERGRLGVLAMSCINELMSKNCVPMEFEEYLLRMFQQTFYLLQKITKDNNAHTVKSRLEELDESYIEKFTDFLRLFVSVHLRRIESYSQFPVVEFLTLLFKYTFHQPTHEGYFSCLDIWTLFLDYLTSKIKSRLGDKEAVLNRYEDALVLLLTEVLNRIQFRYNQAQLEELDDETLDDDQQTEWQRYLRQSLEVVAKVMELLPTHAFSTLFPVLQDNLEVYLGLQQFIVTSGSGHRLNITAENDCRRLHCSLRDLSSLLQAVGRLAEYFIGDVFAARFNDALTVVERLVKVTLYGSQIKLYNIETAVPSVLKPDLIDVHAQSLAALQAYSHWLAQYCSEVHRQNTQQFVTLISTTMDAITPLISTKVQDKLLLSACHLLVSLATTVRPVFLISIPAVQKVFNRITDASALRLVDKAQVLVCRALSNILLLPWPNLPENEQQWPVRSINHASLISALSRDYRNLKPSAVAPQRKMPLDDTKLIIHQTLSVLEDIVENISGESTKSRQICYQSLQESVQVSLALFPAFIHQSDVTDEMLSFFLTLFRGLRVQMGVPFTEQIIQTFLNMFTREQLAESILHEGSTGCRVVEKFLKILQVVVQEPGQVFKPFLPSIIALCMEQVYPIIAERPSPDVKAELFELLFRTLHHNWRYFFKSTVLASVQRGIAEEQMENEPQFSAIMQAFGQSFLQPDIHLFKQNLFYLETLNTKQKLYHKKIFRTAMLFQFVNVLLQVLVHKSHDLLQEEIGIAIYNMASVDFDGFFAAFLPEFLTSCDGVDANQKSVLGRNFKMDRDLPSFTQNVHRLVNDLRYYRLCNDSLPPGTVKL

[2] = target: T2, HeLa cell extract proteins (Homo sapiens, UniProt O15160)
T2 construct: endogenous in cells; host or cells: HeLa cell extract

[3] = target: T3, HeLa cell extract proteins (Homo sapiens, UniProt P55209)
T3 construct: endogenous in cells; host or cells: HeLa cell extract
T3 sequence (P55209 1-391): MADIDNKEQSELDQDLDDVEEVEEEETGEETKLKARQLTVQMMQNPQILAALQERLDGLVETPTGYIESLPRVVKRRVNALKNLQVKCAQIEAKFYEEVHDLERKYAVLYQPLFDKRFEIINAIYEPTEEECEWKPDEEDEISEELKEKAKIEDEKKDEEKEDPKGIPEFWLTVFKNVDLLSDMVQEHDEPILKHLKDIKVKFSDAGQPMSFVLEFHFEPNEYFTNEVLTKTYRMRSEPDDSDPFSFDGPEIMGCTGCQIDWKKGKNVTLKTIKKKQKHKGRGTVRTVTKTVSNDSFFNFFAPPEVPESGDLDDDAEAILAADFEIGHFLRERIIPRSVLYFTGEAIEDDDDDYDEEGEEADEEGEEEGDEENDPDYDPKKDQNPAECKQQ

[4] = target: T4, HeLa cell extract proteins (Homo sapiens, UniProt Q7Z6Z7)
T4 construct: endogenous in cells; host or cells: HeLa cell extract
T4 sequence (Q7Z6Z7 whole entry): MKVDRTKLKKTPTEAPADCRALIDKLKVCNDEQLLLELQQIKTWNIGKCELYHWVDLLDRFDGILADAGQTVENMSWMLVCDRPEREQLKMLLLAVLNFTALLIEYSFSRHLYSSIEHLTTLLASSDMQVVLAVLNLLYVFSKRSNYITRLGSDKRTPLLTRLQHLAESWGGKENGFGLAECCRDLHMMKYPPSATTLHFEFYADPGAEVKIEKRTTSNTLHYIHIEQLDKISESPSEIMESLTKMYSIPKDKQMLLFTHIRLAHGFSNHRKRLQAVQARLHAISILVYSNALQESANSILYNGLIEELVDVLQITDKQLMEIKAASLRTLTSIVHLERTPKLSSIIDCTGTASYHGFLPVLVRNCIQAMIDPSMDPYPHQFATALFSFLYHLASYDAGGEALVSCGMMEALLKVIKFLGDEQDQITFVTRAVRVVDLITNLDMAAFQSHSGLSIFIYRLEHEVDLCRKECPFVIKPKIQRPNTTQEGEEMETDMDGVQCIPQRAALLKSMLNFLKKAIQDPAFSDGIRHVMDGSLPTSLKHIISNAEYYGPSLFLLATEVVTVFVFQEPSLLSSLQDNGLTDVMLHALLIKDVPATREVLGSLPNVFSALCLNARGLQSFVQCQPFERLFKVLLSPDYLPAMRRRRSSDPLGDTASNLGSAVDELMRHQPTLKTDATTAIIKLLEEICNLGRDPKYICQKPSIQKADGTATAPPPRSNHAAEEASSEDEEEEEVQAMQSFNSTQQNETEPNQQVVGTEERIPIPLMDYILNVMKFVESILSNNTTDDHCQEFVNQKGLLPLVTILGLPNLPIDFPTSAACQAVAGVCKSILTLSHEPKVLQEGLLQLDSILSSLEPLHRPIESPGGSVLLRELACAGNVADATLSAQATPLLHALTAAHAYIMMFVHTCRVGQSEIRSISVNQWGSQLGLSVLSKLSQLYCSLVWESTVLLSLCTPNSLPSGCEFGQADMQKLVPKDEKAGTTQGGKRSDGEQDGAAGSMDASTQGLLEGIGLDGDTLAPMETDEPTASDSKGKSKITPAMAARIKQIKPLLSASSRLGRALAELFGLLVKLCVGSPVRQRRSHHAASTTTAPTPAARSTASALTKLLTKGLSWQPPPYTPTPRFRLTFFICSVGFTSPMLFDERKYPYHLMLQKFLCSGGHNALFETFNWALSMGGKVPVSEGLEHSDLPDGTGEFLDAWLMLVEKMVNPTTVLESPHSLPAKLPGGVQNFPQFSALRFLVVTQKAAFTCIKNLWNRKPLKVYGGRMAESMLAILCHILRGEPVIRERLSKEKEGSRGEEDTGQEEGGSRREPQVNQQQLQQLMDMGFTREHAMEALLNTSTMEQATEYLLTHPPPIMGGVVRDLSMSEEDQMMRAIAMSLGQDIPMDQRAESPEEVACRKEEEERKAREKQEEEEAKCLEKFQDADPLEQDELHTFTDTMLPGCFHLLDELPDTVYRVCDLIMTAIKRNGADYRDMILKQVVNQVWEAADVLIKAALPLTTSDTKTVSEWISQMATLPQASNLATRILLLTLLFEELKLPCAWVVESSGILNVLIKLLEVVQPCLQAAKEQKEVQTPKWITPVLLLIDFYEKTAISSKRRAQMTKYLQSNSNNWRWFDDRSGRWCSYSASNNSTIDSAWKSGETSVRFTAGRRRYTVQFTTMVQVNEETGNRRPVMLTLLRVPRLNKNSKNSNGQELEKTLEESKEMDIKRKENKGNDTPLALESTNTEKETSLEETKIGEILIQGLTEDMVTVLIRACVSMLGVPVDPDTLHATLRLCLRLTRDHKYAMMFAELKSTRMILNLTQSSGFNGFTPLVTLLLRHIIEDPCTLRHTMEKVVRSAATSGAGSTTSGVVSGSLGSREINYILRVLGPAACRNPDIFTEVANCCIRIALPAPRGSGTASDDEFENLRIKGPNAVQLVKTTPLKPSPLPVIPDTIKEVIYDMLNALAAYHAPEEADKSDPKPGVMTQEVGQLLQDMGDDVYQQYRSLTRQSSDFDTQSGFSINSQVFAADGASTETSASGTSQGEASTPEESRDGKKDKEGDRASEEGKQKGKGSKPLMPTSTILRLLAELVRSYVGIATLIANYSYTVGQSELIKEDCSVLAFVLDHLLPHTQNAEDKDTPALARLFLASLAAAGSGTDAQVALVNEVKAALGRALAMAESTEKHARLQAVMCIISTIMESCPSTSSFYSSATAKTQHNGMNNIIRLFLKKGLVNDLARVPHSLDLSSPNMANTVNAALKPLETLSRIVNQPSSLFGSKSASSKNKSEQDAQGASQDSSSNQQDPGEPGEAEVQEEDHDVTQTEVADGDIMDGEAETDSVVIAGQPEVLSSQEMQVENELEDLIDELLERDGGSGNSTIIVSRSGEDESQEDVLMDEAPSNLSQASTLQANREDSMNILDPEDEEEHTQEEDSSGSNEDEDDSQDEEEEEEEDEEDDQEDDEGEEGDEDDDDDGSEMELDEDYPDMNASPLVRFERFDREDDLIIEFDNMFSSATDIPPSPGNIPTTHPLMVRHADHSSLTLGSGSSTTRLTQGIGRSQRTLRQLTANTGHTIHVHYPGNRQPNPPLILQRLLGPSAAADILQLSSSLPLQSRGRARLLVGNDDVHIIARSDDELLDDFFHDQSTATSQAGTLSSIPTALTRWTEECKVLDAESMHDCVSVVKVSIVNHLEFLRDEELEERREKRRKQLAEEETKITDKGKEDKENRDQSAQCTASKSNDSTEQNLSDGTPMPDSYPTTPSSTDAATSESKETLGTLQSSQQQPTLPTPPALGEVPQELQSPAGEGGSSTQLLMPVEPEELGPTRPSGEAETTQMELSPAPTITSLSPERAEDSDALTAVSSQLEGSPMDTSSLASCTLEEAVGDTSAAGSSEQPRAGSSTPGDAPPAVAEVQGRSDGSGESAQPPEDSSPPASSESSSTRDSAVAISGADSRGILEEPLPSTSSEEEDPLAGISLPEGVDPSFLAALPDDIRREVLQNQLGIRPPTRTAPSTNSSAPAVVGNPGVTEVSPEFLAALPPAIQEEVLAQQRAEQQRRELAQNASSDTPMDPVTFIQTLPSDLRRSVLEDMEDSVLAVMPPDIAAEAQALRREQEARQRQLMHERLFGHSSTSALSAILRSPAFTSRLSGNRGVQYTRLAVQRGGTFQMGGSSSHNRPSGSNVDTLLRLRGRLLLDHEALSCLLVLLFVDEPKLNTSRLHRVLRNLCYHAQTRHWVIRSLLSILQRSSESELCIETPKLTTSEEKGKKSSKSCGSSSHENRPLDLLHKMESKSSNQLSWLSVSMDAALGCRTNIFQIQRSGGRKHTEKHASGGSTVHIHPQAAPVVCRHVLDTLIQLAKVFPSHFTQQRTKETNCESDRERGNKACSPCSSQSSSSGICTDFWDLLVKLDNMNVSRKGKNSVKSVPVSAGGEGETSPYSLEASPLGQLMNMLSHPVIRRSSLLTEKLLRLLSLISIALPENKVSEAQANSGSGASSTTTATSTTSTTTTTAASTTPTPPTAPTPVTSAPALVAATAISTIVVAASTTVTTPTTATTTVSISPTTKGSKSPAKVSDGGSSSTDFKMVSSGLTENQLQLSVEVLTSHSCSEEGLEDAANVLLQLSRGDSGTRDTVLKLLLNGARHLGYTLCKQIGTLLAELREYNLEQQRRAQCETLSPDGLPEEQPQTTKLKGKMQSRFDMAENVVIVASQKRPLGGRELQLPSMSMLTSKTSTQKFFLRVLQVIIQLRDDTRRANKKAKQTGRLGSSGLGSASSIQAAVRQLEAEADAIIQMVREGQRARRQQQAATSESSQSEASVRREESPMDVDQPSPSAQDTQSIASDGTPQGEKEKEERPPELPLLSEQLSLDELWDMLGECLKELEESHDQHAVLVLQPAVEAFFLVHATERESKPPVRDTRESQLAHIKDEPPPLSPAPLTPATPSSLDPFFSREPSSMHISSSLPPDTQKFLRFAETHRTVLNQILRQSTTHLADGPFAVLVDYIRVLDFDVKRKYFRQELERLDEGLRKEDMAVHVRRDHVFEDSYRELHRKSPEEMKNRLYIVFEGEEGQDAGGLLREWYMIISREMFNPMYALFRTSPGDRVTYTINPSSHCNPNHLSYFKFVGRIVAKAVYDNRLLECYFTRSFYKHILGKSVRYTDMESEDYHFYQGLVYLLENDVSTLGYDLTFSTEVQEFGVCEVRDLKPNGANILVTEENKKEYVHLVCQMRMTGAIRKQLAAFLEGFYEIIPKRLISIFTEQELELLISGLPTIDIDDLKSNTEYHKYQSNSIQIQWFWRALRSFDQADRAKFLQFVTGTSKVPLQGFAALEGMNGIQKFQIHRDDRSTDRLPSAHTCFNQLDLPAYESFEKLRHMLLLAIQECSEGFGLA

[5] = target: T5, HeLa cell extract proteins (Homo sapiens, UniProt Q8WUK0); conditions: captured protein PTPMT1; HeLa
T5 construct: endogenous in cells; host or cells: HeLa cell extract
T5 sequence (Q8WUK0 28-201): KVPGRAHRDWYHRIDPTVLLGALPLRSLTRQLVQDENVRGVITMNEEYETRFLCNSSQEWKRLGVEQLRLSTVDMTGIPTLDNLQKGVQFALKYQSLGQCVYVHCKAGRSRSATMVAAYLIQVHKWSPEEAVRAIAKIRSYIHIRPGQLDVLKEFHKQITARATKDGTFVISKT

[6] = target: T6, HeLa cell extract proteins (Homo sapiens, UniProt P43358); conditions: protein MAGEA4; HeLa
T6 construct: endogenous in cells; host or cells: HeLa cell extract
T6 sequence (P43358 1-317): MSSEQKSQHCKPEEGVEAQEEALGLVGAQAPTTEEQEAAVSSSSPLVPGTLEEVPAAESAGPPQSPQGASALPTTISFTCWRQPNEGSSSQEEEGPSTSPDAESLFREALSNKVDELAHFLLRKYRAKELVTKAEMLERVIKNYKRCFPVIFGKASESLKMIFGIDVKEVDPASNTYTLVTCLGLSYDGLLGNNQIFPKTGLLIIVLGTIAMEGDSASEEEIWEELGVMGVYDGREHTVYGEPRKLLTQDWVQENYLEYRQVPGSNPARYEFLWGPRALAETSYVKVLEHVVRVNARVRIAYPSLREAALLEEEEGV

[7] = target: T7, HeLa cell extract proteins (Homo sapiens, UniProt P46976); conditions: protein GYG1; HeLa
T7 construct: endogenous in cells; host or cells: HeLa cell extract
T7 sequence (P46976 1-350): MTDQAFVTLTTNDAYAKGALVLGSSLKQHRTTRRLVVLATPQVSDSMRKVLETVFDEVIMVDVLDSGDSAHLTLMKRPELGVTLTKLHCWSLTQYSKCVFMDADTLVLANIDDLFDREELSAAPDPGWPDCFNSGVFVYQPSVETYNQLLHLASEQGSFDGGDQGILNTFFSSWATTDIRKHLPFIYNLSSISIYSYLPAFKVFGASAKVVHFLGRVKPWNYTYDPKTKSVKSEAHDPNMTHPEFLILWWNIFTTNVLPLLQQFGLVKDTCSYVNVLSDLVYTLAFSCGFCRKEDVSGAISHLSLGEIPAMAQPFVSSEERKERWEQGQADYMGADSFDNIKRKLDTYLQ

[8] = target: T8, HeLa cell extract proteins (Homo sapiens, UniProt Q8WUX1); conditions: HeLa; protein SLC38A5
T8 construct: endogenous in cells; host or cells: HeLa cell extract
T8 sequence (Q8WUX1 whole entry): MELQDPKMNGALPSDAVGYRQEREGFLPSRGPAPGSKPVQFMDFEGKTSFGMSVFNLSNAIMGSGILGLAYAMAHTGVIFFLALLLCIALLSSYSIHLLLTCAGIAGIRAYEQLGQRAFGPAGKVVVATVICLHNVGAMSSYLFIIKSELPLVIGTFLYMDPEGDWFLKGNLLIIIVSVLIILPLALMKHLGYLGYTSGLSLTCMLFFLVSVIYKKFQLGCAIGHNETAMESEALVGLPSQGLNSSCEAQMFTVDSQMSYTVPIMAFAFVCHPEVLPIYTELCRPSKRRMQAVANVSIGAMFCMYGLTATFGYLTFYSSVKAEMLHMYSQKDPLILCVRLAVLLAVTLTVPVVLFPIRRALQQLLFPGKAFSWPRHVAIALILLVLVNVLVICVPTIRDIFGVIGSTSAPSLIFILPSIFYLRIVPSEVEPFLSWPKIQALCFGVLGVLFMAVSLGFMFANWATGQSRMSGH

Structure (SMILES)	fold changes relative to vehicle control ([1]; HeLa, protein XPO6)	fold changes relative to vehicle control ([2]; protein POLR1C, HeLa)	fold changes relative to vehicle control ([3]; HeLa, captured protein NAP1L1)	fold changes relative to vehicle control ([4]; HeLa, protein HUWE1)	fold changes relative to vehicle control [5]	fold changes relative to vehicle control [6]	fold changes relative to vehicle control [7]	fold changes relative to vehicle control [8]	also measured
Nc1nc2c(c(=O)[nH]1)N(C=O)C(CNc1ccc(C(=O)N[C@@H](CCC(=O)O)C(=O)O)cc1)CN2 (stereo partly shown) [LEU, leucovorin]	0.99	0.87	0.97	0.98	–	–	–	–	–
Nc1nc2[nH]cc(CCc3ccc(C(=O)N[C@@H](CCC(=O)O)C(=O)O)cc3)c2c(=O)[nH]1 [PTX, pemetrexed]	–	–	–	–	–	–	–	–	fold changes relative to vehicle control [1]: 0.98; fold changes relative to vehicle control [2]: 0.9; fold changes relative to vehicle control [3]: 1.04; fold changes relative to vehicle control [4]: 1.02
CCCCCCOc1ccc(Cc2cnc(N)nc2N)cc1 [compound 1]	–	–	–	–	0.88	0.95	1.09	0.91	–
CCCCCCOc1cccc(Cc2cnc(N)nc2N)c1 [compound 2]	–	–	–	–	0.91	1.19	1.31	1.14	–
Nc1nc2cccc(-c3ccccc3)c2n1Cc1ccc(Cl)c(Cl)c1 [compound 3]	–	–	–	–	0.93	0.98	0.95	0.95	–
NCCOCCOCC(=O)Nc1nc2ncc(CNc3ccc(C(=O)NC(CCC(=O)O)C(=O)O)cc3)nc2c(=O)[nH]1 (stereo not shown) [compound 6]	1.09	0.97	1.19	1.23	–	–	–	–	–
NCCCNc1ccc(C(=O)NC(CCC(=O)O)C(=O)O)cc1 (stereo not shown) [compound 7]	1.08	0.95	1.06	0.96	–	–	–	–	–
